Measured values taken from patent US7645882B2, “Inhibitor of protein modification products formation” (priority 2003, dated 2010).

System: pentosidine
Experiment: Pentosidine production inhibiting effect with BSA and arabinose
Assay type: biochemical
Details: BSA and arabinose instead of plasma
Experimental: Fresh heparinized plasma samples were obtained after informed consent from hemodialysis patients prior to the dialysis session, and filtrated and sterilized. To the plasma (450 μL), there was added the solution of TM-2002 in dimethylsurphoxide (50 μL) (final concentration: 0.8, 2.0, 5.0 mM) incubated at 37° C. for one week. Then, the amount of pentosidine was measured.
Measurement of the amount of pentosidine was made as follows: to each incubated sample (50 μL) was added an equal volume of 10% trichloroacetic acid, followed by centrifugation at 5000 g for 5 minutes; after removal of the supernatant, the pellet was washed by 5% trichloroacetic acid (300 μL); the pellet was dried under reduced pressure and then subjected to hydrolysis in 6N HCl solution (100 μL) at 110° C. under nitrogen atmosphere for 16 hours; to the hydrolysate, 5N NaOH (100 μL) and 0.5 M phosphate buffer (pH 7.4) (200 μL) were added, followed by filtration through a porefilter with a pore size of 0.5 μm and dilution with PBS. The concentration of free pentosidine was determined by reversed-phase HPLC using a fluorescence detector (Miyata, T. et al.: Proc. Natl. Acad. Sci. USA, Vol. 93, p. 2353-2358, 1996). The effluent was monitored at 335/385 nm of excitation/emission wavelength. Synthetic pentosidine was used as the standard. The detection limit of pentosidine was 0.1 pmol/mg protein.
The plasma from patients was substituted to BSA and arabinose, and the pentosidine production inhibiting effect of another compounds (I) or (II) was measured in the same manner as [Test Examination 1]. Therein, “-” means that the examination was not carried out.

## CC1=NN(c2ccccc2)C(=O)C1CCC(=O)O (centres unmarked) [compound 7, 3-(3-methyl-5-oxo-1-penyl-4,5-dihydro-1H-pyrazol-4-yl)-propionic acid]
  Pentosidine production rate in 5 mM of medicament (%): 64.64%

## CC1=NN(c2ccccc2)C(=O)C1C(c1ccccc1)c1c(C)nn(-c2ccccc2)c1O (centres unmarked) [compound 9, 4-[(5-hydroxy-3-methyl-1-phenyl-1H-pyrazol-4-yl)-phenyl-methyl]-5-methyl-2-phenyl-2,4-dihydro-pyrazol-3-one]
  Pentosidine production rate in 5 mM of medicament (%): 7.52%

## CC(=O)NC1C(=O)N(c2ccccc2)N=C1C (centres unmarked) [compound 12, N-(3-methyl-5-oxo-1-phenyl-4,5-dihydro-1H-pyrazol-4-yl)-acetamide]
  Pentosidine production rate in 5 mM of medicament (%): 54.21%

## CC1=NN(c2cccc([N+](=O)[O-])c2)C(=O)C1Sc1nnnn1-c1ccccc1 (centres unmarked) [compound 13, 5-methyl-2-(3-nitro-phenyl)-4-(1-phenyl-1H-tetrazol-5-yl-sulfanil)-2,4-dihydro-pyrazol-3-one]
  Pentosidine production rate in 5 mM of medicament (%): 74.66%

## O=C(NC1=NN(c2ccccc2)C(=O)C1Sc1nnnn1-c1ccccc1)c1ccccc1 (centres unmarked) [compound 14, N-[5-oxo-1-phenyl-4-(1-phenyl-1H-tetrazol-5-yl-sulfanil)-4,5-dihydro-1H-pyrazol-3-yl]-benzamide]
  Pentosidine production rate in 5 mM of medicament (%): 61.27%

## CC1=NN(c2ccccc2)C(=O)C1C1C(=O)N(c2ccccc2)N=C1C (centres unmarked) [compound 17, 5,5′-dimethyl-2,2′-diphenyl-2,4,2′,4′-tetrahydro-[4,4′]-bipyrazol-3,3′-dione]
  Pentosidine production rate in 5 mM of medicament (%): 60.96%

## COc1ccc(-c2csc(SC3C(=O)N(c4ccccc4)N=C3C)n2)cc1 (centres unmarked) [compound 19, 4-[4-(4-methoxy-phenyl)-thiazole-2-yl-sulfanil]-5-methyl-2-phenyl-2,4-dihydro-pyrazol-3-one]
  Pentosidine production rate in 5 mM of medicament (%): 40.19%

## CCCC1=NN(c2ccccc2)C(=O)C1CC(=O)c1ccccc1 (centres unmarked) [compound 20, 4-(2-oxo-2-phenyl-ethyl)-2-phenyl-5-propyl-2,4-dihydro-pyrazol-3-one]
  Pentosidine production rate in 5 mM of medicament (%): 83.12%

## CC1=NN(c2ccccc2)C(=O)C1Sc1nc(-c2ccc(C)cc2)cs1 (centres unmarked) [compound 21, 5-methyl-2-phenyl-4-(4-p-toluyl-thiazole-2-yl-sulfanil)-2,4-dihydro-pyrazol-3-one]
  Pentosidine production rate in 5 mM of medicament (%): 42.07%

## CC1=NN(c2ccc(F)cc2)C(=O)C1C(c1ccccc1O)c1c(C)nn(-c2ccc(F)cc2)c1O (centres unmarked) [compound 22, 2-(4-fluoro-phenyl)-4-[[1-(4-fluoro-phenyl)-5-hydroxy-3-methyl-1H-pyrazol-4-yl]-(2-hydroxy-phenyl)-methyl]-5-methyl-2,4-dihydro-pyrazol-3-one]
  Pentosidine production rate in 5 mM of medicament (%): 2.9%

## CC1=NN(c2ccccc2)C(=O)C1(O)S(=O)(=O)[O-].[Na+] (centres unmarked) [compound 25, sodium; 4-hydroxy-3-methyl-5-oxo-1-phenyl-4,5-dihydro-1H-pyrazol-4-sulfonate]
  Pentosidine production rate in 5 mM of medicament (%): 38.80%

## CC1=NN(c2ccccc2)C(=O)C1(N1CCOCC1)N1CCOCC1 [compound 26, 5-methyl-4,4-di-morpholin-4-yl-2-phenyl-2,4-dihydro-pyrazol-3-one]
  Pentosidine production rate in 5 mM of medicament (%): 50.68%

## O=C(NC1=NN(c2ccccc2)C(=O)C1(O)S(=O)(=O)[O-])c1ccccc1.[Na+] (centres unmarked) [compound 27, sodium 3-benzoylamino-4-hydroxy-5-oxo-1-phenyl-4,5-dihydro-1H-pyrazol-4-sulfonate]
  Pentosidine production rate in 5 mM of medicament (%): 2.83%

## CC1=NN(c2ccccc2)C(=O)C12Sc1ccccc1C2=O (centres unmarked) [compound 28, 3-methyl-1-phenyl-5-oxo-4-spiro-(3-oxo-2,3-dihydro-benzo[b]thiophen-2-yl)-4,5-dihydro-1H-pyrazol]
  Pentosidine production rate in 5 mM of medicament (%): 22.83%

## CC1=NN(c2ccccc2)C(=O)C12C(c1ccccc1)C21C(=O)N(c2ccccc2)N=C1C (centres unmarked) [compound 30, 4,10-dimethyl-2,8,11-triphenyl-2,3,8,9-tetraza-dispiro[4.0.4.1]undeca-3,9-diene-1,7-dione]
  Pentosidine production rate in 5 mM of medicament (%): 62.43%

## CCOc1cc(/C=C2/C(=O)N(c3ccccc3Cl)N=C2C)ccc1O [compound 31, 2-(2-chloro-phenyl)-4-(3-ethoxy-4-hydroxy-benzylidene)-5-methyl-2,4-dihydro-pyrazol-3-one]
  Pentosidine production rate in 5 mM of medicament (%): 15.57%

## CC1=NN(c2ccccc2Cl)C(=O)/C1=C/c1ccc(N(C)C)cc1 [compound 32, 2-(2-chloro-phenyl)-4-(4-dimethylamino-benzylidene)-5-methyl-2,4-dihydro-pyrazol-3-one]
  Pentosidine production rate in 5 mM of medicament (%): 8.7%

## CC1=NN(c2cccc(C(F)(F)F)c2)C(=O)/C1=C/C=C/c1ccccc1 [compound 33, 5-methyl-4-(3-phenyl-allylidene)-2-(3-trifluoromethyl-phenyl)-2,4-dihydro-pyrazol-3-one]
  Pentosidine production rate in 5 mM of medicament (%): 80.08%

## CC1=NN(c2cccc(F)c2)C(=O)/C1=C\c1ccc(N(C)C)cc1 [compound 35, 4-(4-dimethylamino-benzylidene)-2-(3-fluoro-phenyl)-5-methyl-2,4-dihydro-pyrazol-3-one]
  Pentosidine production rate in 5 mM of medicament (%): 76.31%

## CC1=NN(c2cccc(C(=O)O)c2)C(=O)/C1=C\c1ccc(N2CCC(Cl)=N2)cc1 [compound 36, 3-{4-[4-(3-chloro-4,5-dihydro-pyrazol-1-yl)-benzylidene]-3-methyl-5-oxo-4,5-dihydro-pyrazol-1-yl}-benzoic acid]
  Pentosidine production rate in 5 mM of medicament (%): 26.37%

## O=C(O)c1cccc(N2N=C(c3ccccc3)/C(=C/c3ccccc3O)C2=O)c1 [compound 37, 3-[4-(2-hydroxy-benzylidene)-5-oxo-3-phenyl-4,5-dihydro-pyrazol-1-yl]-benzoic acid]
  Pentosidine production rate in 5 mM of medicament (%): 0.02%

## CC1=NN(c2cccc(Cl)c2)C(=O)/C1=C/c1cc2ccccc2[nH]c1=O [compound 38, 3-[1-(3-chloro-phenyl)-3-methyl-5-oxo-1,5-dihydro-pyrazol-4-ylidene-methyl]-1H-quinolin-2-one]
  Pentosidine production rate in 5 mM of medicament (%): 84.95%

## COC(=O)c1cccc(-c2ccc(/C=C3\C(=O)N(c4ccc(S(N)(=O)=O)cc4)N=C3C)o2)c1 [compound 39, 3-{5-[3-methyl-5-oxo-1-(4-sulfamoyl-phenyl)-1,5-dihydro-pyrazol-4-ylidene-methyl]-furan-2-yl}-benzoic acid-methyl ester]
  Pentosidine production rate in 5 mM of medicament (%): 16.87%

## COC(=O)c1ccc(N2N=C(C)/C(=C/c3ccc4c(c3)OCO4)C2=O)cc1 [compound 40, 4-(4-benzo[1,3]dioxol-5-ylmethylene-3-methyl-5-oxo-4,5-dihydro-pyrazol-1-yl)-benzoic acid-methyl ester]
  Pentosidine production rate in 5 mM of medicament (%): 32.37%

## COC(=O)c1ccc(N2N=C(C)/C(=C/c3ccc(-c4ccc(S(N)(=O)=O)cc4)o3)C2=O)cc1 [compound 41, 4-{3-methyl-5-oxo-4-[5-(4-sulfamoyl-phenyl)-furan-2-yl-methylene]-4,5-dihydro-pyrazol-1-yl}-benzoic acid-methyl ester]
  Pentosidine production rate in 5 mM of medicament (%): 37.81%

## CC1=NN(c2ccc(Cl)cc2)C(=O)/C1=C/c1ccc(O)cc1O [compound 42, 2-(4-chloro-phenyl)-4-(2,4-dihydroxy-benzylidene)-5-methyl-2,4-dihydro-pyrazol-3-one]
  Pentosidine production rate in 5 mM of medicament (%): 68.32%

## CC1=NN(c2ccc(Cl)cc2)C(=O)/C1=C/c1cccc(O)c1 [compound 43, 2-(4-chloro-phenyl)-4-(3-hydroxy-benzylidene)-5-methyl-2,4-dihydropyrazol-3-one]
  Pentosidine production rate in 5 mM of medicament (%): 3.00%

## CC1=NN(c2ccc(C)cc2)C(=O)/C1=C/c1ccc(O)c(O)c1 [compound 44, 4-(3,4-dihydroxy-benzylidene)-5-methyl-2-p-toluyl-2,4-dihydro-pyrazol-3-one]
  Pentosidine production rate in 5 mM of medicament (%): 66.19%

## CC(=O)c1ccc(N2N=C(C)/C(=C3\C(=O)Nc4ccccc43)C2=O)cc1 [compound 45, 3-[1-(4-acetyl-phenyl)-3-methyl-5-oxo-1,5-dihydro-pyrazol-4-ylidene]-1,3-dihydro-indol-2-one]
  Pentosidine production rate in 5 mM of medicament (%): 19.22%

## CC1=NN(c2ccc(F)cc2)C(=O)/C1=C\c1c(C)nn(-c2ccccc2C)c1O [compound 46, 2-(4-fluoro-phenyl)-4-(5-hydroxy-3-methyl-1-o-toluyl-1H-pyrazol-4-yl-methylene)-5-methyl-2,4-dihydro-pyrazol-3-one]
  Pentosidine production rate in 5 mM of medicament (%): 15.69%

## COc1cc(/C=C2\C(=O)N(c3ccc(Cl)cc3)N=C2C(F)(F)F)ccc1O [compound 47, 2-(4-chloro-phenyl)-4-(4-hydroxy-3-methoxy-benzylidene)-5-trifluoromethyl-2,4-dihydro-pyrazol-3-one]
  Pentosidine production rate in 5 mM of medicament (%): 28.86%

## CCc1ccc(N2N=C(C)/C(=C\c3ccc(O)cc3)C2=O)cc1 [compound 48, 2-(4-ethyl-phenyl)-4-(4-hydroxy-benzylidene)-5-methyl-2,4-dihydro-pyrazol-3-one]
  Pentosidine production rate in 5 mM of medicament (%): 0.02%
